From patent publication US7642088B2, “Device for susceptibility testing of bacterial pathogens and vaccine strains in poultry” (Lohmann Animal Health GmbH & Co. KG, priority 2004, dated 2010)
Values after ≈ are worked out from the molar mass of the structure shown. Read-outs that look alike come from different tables or passages of the source.

Columns and labels:
[1] = system: Escherichia coli ATCC 25922; settings: taken from NCCLS, M31-A2, 2002; cited from earlier work
[2] = system: Escherichia coli ATCC 25922; assay: MIC range and interpretive result on gram-negative reference strain; format: cell-based; settings: for Interpretive result: MIC range against breakpoints LB + UB; for MIC range: data validated by MERLIN Diagnostika GmbH
Procedure: (§1) Determining the susceptibility with the microtiter plate 1 depends on the rehydration of antibiotics by the addition of a standardised bacterial suspension. The result is measured after 18-24 hours incubation at 35-37° C. photometrically with MICRONAUT Skan or another suitable photometer and analysed with MICRONAUT Software or visually read and interpreted.
(§2) Test Procedure 1. Gram Preparation: • Gram-positive bacteria appear blue, gram-negative bacteria red. It is recomended that the gram stain is determined according to standard protocol or the recommendations on the manufacturer's kit. 2. Inoculum Production • Prepare a test tube with 5 ml NaCl 0.9% pH 5.5 to 6.5. • Remove several individually located colonies of a pure culture which is 18-24 hours old from the blood agar (without additives). • Homogenise the colonies well in 5 ml NaCl 0.9% until the turbidity corresponds to a McFarland of 0.5. 3. Inoculation in Broth • 3.1 Mueller-Hinton broth or modified ISO-Sensitest broth. • For gram-negative bacteria, 50 μl of the bacterial suspension is pipetted into 11 ml Mueller-Hinton II broth or modified ISO-Sensitest broth and well homogenised. • For gram-positive bacteria, 100 μl of the bacterial suspension is pipetted into 11 ml Mueller-Hinton II broth or modified ISO-Sensitest broth and well homogenised. • 3.2H-Broth • For fastidious bacteria, 200 μl of the bacterial suspension is transferred into 11 ml preheated H-Broth and homogenised. 4. Inoculation (Broth-Microdilution) • Remove microtiter plate from the individual packaging max. 30 minutes before inoculation and dispose of the dessicant. • Label test plate. • Dispense the prepared suspension according to the plate layout into a 2-channel reservoir. • The inoculation of the microtiter plate is carried out manually with a multi-channel pipette, 100 μl per well. 5. Sealing and Incubation • 5.1 Mueller-Hinton II broth or modified ISO-Sensitest broth • After inoculating seal the test plates with an unperforated adhesive film or cover with an unused microtiter plate (max. 5 test plates stacked). • Incubate test plate 18-24 hours at 35-37° C. • 5.2H-Broth • After inoculating the test plates cover with an unused microtiter plate or with a perforated cover film. • Incubate test plate 22 to 24 hours at 35 to 37° C. in the incubator with CO2 gassing. 6. Reading • Remove adhesive film. • Wipe test plate from below. • Reading of test plate with photometer or visually. 7. Analysis • The bacterial growth is determined using a photometric measurement at a wave length of 620 nm or 690 nm—according to the broth used. • The result is analysed, interpreted and checked for its plausibility by means of MICRONAUT Software. The growth control must be overgrown (turbid), otherwise the test must be repeated. With visual readout the results should be recorded on a plate layout plan. The test result can be seen on the screen or on the findings report. 8. Interpretation of the Results
(§3) Breakpoint Interpretation • For antibiotics which are tested in four or fewer consecutive concentrations or in non-consecutive concentrations, interpreting categories are determined, namely susceptible, intermediate and resistant, on the basis of low and upper breakpoint MIC values (See attachment: Tables IIA and IIB, Tables IIIA, IIIB, IIIC and IIID and Table IV). The lower breakpoint (LB) is represented by the MIC value which prevents sufficient and visible bacterial growth, ie the bacterial isolate is susceptible to the antibiotic. […] Using MICRONAUT Software, MIC values can be automatically analysed and interpreted for a given bacterial isolate and antibiotic. […]

[3] = system: Enterococcus faecalis ATCC 29212; assay: MIC range and interpretive result on gram-positive reference strain; format: cell-based; settings: for Interpretive result: MIC range against breakpoints LB + UB; for MIC range: data validated by MERLIN Diagnostika GmbH
Procedure: as §1, §2, §3

[4] = system: Enterococcus faecalis ATCC 29212; settings: taken from NCCLS, M31-A2, 2002; cited from earlier work
[5] = system: Pseudomonas aeruginosa ATCC 27853; assay: MIC range and interpretive result on gram-negative reference strain; format: cell-based; settings: for Interpretive result: MIC range against breakpoints LB + UB; for MIC range: data validated by MERLIN Diagnostika GmbH
Procedure: as §1, §2, §3

[6] = system: Staphylococcus aureus ATCC 29213; assay: MIC range and interpretive result on gram-positive reference strain; format: cell-based; settings: for Interpretive result: MIC range against breakpoints LB + UB; for MIC range: data validated by MERLIN Diagnostika GmbH
Procedure: as §1, §2, §3

[7] = system: Staphylococcus aureus ATCC 29213; settings: taken from NCCLS, M31-A2, 2002; cited from earlier work
[8] = system: Pseudomonas aeruginosa ATCC 27853; settings: taken from NCCLS, M31-A2, 2002; cited from earlier work
[9] = system: S.E. Sm24/Rif12/Ssq (vaccine strain); assay: Broth microdilution MIC, resistance marker discrimination, vaccine strain S.E. Sm24/Rif12/Ssq; format: cell-based, Salmonella Enteritidis; settings: chicken, validated at Lohmann Animal Health
Procedure: as §1
(§4) Test Procedure 1. Gram Preparation: • Gram-positive bacteria appear blue, gram-negative bacteria red. It is recomended that the gram stain is determined according to standard protocol or the recommendations on the manufacturer's kit. 2. Inoculum Production • Prepare a test tube with 5 ml NaCl 0.9% pH 5.5 to 6.5. • Remove several individually located colonies of a pure culture which is 18-24 hours old from the blood agar (without additives). • Homogenise the colonies well in 5 ml NaCl 0.9% until the turbidity corresponds to a McFarland of 0.5. 3. […] Reading • Remove adhesive film. • Wipe test plate from below. • Reading of test plate with photometer or visually. […] Analysis • The bacterial growth is determined using a photometric measurement at a wave length of 620 nm or 690 nm—according to the broth used. • The result is analysed, interpreted and checked for its plausibility by means of MICRONAUT Software. […] With visual readout the results should be recorded on a plate layout plan. […]
(§5) Breakpoint Interpretation • For antibiotics which are tested in four or fewer consecutive concentrations or in non-consecutive concentrations, interpreting categories are determined, namely susceptible, intermediate and resistant, on the basis of low and upper breakpoint MIC values (See attachment: Tables IIA and IIB, Tables IIIA, IIIB, IIIC and IIID and Table IV). […] Using MICRONAUT Software, MIC values can be automatically analysed and interpreted for a given bacterial isolate and antibiotic. […]

[10] = system: S.Tm. Moskau 415 (field strain); assay: Broth microdilution MIC, resistance marker discrimination, field strain S.Tm. Moskau 415; format: cell-based, Salmonella Typhimurium; settings: chicken, validated at Lohmann Animal Health
Procedure: as §1
as §4, with “2.” for “2. Inoculum Production • Prepare a test tube with 5 ml NaCl 0.9% pH 5.5 to 6.5. • Remove several individually located colonies of a pure culture which is 18-24 hours old from the blood agar (without additives). • Homogenise the colonies well in 5 ml NaCl 0.9% until the turbidity corresponds to a McFarland of 0.5. 3.”
(§6) Breakpoint Interpretation • For antibiotics which are tested in four or fewer consecutive concentrations or in non-consecutive concentrations, interpreting categories are determined, namely susceptible, intermediate and resistant, on the basis of low and upper breakpoint MIC values (See attachment: Tables IIA and IIB, Tables IIIA, IIIB, IIIC and IIID and Table IV). […]

[11] = system: S.E. Leipzig (field strain); assay: Broth microdilution MIC, resistance marker discrimination, field strain S.E. Leipzig; format: cell-based, Salmonella Enteritidis; settings: chicken, validated at Lohmann Animal Health
Procedure: as §1, §4, §5

[12] = system: S.Tm. Nal2/Rif9/Rtt (vaccine strain); assay: Broth microdilution MIC, resistance marker discrimination, vaccine strain S.Tm. Nal2/Rif9/Rtt; format: cell-based, Salmonella Typhimurium; settings: chicken, validated at Lohmann Animal Health
Procedure: as §1
as §4, with “2.” for “2. Inoculum Production • Prepare a test tube with 5 ml NaCl 0.9% pH 5.5 to 6.5. • Remove several individually located colonies of a pure culture which is 18-24 hours old from the blood agar (without additives). • Homogenise the colonies well in 5 ml NaCl 0.9% until the turbidity corresponds to a McFarland of 0.5. 3.”
as §6

Compound	MIC range [1] [µg/mL]	Interpretive result [2]	Interpretive result [3]	MIC range [4] [µg/mL]	Interpretive result [5]	Interpretive result [6]	MIC range [7] [µg/mL]	further results
CC1(C)S[C@@H]2[C@H](NC(=O)[C@H](N)c3ccccc3)C(=O)N2[C@H]1C(=O)O [Ampicillin]	2 to 8	S	S	0.5 to 2				
CO/N=C(\C(=O)N[C@@H]1C(=O)N2C(C(=O)O)=C(CSC(=O)c3ccco3)CS[C@H]12)c1csc(N)n1 [Ceftiofur]	0.25 to 1	S			R	S	0.25 to 1	MIC range [8]: 16 to 64 µg/mL
CCN1CCN(c2cc3c(cc2F)c(=O)c(C(=O)O)cn3C2CC2)CC1 [Enrofloxacin]	0.008 to 0.03	S	S/I	0.12 to 1	I/R	S	0.03 to 0.12	MIC range [8]: 1 to 4 µg/mL
CC[C@H]1OC(=O)[C@H](C)[C@@H](O[C@H]2C[C@@](C)(OC)[C@@H](O)[C@H](C)O2)[C@H](C)[C@@H](O[C@@H]2O[C@H](C)C[C@H](N(C)C)[C@H]2O)[C@](C)(O)C[C@@H](C)C(=O)[C@H](C)[C@@H](O)[C@]1(C)O [Erythromycin]			I	1 to 4		S/I	0.12 to 1	MIC range [9]: ≦5 μg/ml; MIC range [10]: ≧20 μg/ml; MIC range [11]: ≧20 μg/ml; MIC range [12]: ≦5 μg/ml
CCC[C@@H]1C[C@@H](C(=O)N[C@@H]([C@H]2O[C@H](SC)[C@H](O)[C@@H](O)[C@H]2O)[C@@H](C)O)N(C)C1 [Lincomycin]			R		R	S/I		MIC range [5]: 32 µg/mL (≈ 78.7 µM); MIC range [6]: 0.5 to 2 µg/mL; MIC range [3]: 8 to 32 µg/mL
Cc1onc(-c2ccccc2)c1C(=O)N[C@@H]1C(=O)N2[C@@H]1SC(C)(C)[C@@H]2C(=O)O [Oxacillin]			R	8 to 32		S	0.12 to 0.5	
CC1(C)S[C@@H]2[C@H](NC(=O)Cc3ccccc3)C(=O)N2[C@H]1C(=O)O [Penicillin G]			S	1 to 4		R	0.25 to 2	
CO[C@H]1/C=C/O[C@@]2(C)Oc3c(C)c(O)c4c(O)c(c(/C=N/N5CCN(C)CC5)c(O)c4c3C2=O)NC(=O)/C(C)=C\C=C\[C@H](C)[C@H](O)[C@@H](C)[C@@H](O)[C@@H](C)[C@H](OC(C)=O)[C@@H]1C [Rifampicin]								MIC range [9]: >50 µg/mL; MIC range [10]: <50 µg/mL; MIC range [11]: <50 µg/mL; MIC range [12]: >50 µg/mL
CN[C@@H]1[C@H](O)[C@H](NC)[C@H]2O[C@@]3(O)C(=O)C[C@@H](C)O[C@H]3O[C@@H]2[C@H]1O [Spectinomycin]	8 to 64	S/R	R	64 to 256		R	64 to 256	
[H]/N=C(/N)N[C@H]1[C@H](O)[C@@H](O)[C@H](O[C@@H]2O[C@@H](C)[C@](O)(C=O)[C@H]2O[C@@H]2O[C@@H](CO)[C@H](O)[C@@H](O)[C@@H]2NC)[C@@H](N/C(N)=N\[H])[C@@H]1O [Streptomycin]								MIC range [9]: >200 µg/mL; MIC range [11]: <200 µg/mL
CN(C)[C@@H]1C(O)=C(C(N)=O)C(=O)[C@@]2(O)C(O)=C3C(=O)c4c(O)cccc4[C@@](C)(O)[C@H]3C[C@@H]12 [Tetracycline]		S	I/R		R	S		
C=C[C@]1(C)C[C@@H](OC(=O)CSCCN(CC)CC)[C@]2(C)[C@H](C)CC[C@]3(CCC(=O)[C@H]32)[C@@H](C)[C@@H]1O [Tiamulin]						S	0.5 to 2.0	
Colistin		S			S/I	R		MIC range [2]: ≦0.5 μg/ml; MIC range [5]: 0.5 to 2 µg/mL; MIC range [6]: 64 µg/mL
Gentamicin	0.25 to 1	S	S/I/R	4 to 16	S	S	0.12 to 1	MIC range [8]: 0.5 to 2 µg/mL
Neomycin		S	R			S		MIC range [2]: 0.5 to 2 µg/mL; MIC range [6]: 0.5 to 2 µg/mL; MIC range [3]: 16 to 64 µg/mL
